Values quoted from earlier work in US8288342B2, “Methods for treating vasomotor symptoms in castrated prostatic cancer patients with low dose cyproterone acetate” (priority 2008, dated 2012).

Test system: hot flashes
Details: 37 subjects with bothersome hot flashes; cited from earlier work

**Q.** Which “Therapeutic efficacy: reduction in hot flashes” value does the source give for `CC(=O)O[C@]1(C(C)=O)CC[C@H]2[C@@H]3C=C(C)C4=CC(=O)CC[C@]4(C)[C@H]3CC[C@@]21C` [MA, megestrol acetate] here?
**A.** The value was 70%.
